Molecular target: full-length MALT1 protein His-MALT1(1-824) (Homo sapiens (Human), UniProt Q9UDY8)
Assay: MALT1 protease assay, Assay 2 (1 nM MALT1, Ac-LRSR-AMC substrate)
Assay type: biochemical
Details: 1 nM MALT1, 50 μM Ac-LRSR-AMC, 2 h pre-incubation, 8 hr incubation at RT
Method: MALT1 protease activity was assessed in an in vitro assay using a tetrapeptide as substrate and full-length MALT1 protein His-MALT1(1-824) purified from baculovirus-infected insect cells.
The final assay buffer includes 1 nM (Assay 2) or 2 nM (Assay 1) of MALT1 full-length protein, 50 μM Ac-LRSR-AMC substrate, 50 mM Tris pH 7.5, 600 mM Sodium Citrate, 1 mM DTT, 1 mM EDTA, and 0.05% BSA in 384-well plate format using black microtiter square well plates (Optiplate 384-F, Perkin Elmer).
Test compounds were dissolved in 100% DMSO at stock of 10 mM, with final DMSO concentration 0.1%. Test compounds were pre-incubated with MALT1 protein for 2 h at room temperature. Substrate was added after the pre-incubation and fluorescence signal was measured using Envision at excitation 355 nm and emission 460 nm after 8 hr incubation at RT.
The fluorescence units were transformed to percentage of remaining activity by using the high control (HC, median of fluorescence signal from wells containing MALT1 protein, substrate, and DMSO) and low control (LC, median of fluorescence signal from wells with substrate only) with the formula below: […]
IC50 and Hill coefficient were obtained using Graph Pad Prism (Graph Pad software, Inc, USA) with non-linear regression analysis.

Chain of full-length MALT1 protein His-MALT1(1-824) (Q9UDY8 whole entry): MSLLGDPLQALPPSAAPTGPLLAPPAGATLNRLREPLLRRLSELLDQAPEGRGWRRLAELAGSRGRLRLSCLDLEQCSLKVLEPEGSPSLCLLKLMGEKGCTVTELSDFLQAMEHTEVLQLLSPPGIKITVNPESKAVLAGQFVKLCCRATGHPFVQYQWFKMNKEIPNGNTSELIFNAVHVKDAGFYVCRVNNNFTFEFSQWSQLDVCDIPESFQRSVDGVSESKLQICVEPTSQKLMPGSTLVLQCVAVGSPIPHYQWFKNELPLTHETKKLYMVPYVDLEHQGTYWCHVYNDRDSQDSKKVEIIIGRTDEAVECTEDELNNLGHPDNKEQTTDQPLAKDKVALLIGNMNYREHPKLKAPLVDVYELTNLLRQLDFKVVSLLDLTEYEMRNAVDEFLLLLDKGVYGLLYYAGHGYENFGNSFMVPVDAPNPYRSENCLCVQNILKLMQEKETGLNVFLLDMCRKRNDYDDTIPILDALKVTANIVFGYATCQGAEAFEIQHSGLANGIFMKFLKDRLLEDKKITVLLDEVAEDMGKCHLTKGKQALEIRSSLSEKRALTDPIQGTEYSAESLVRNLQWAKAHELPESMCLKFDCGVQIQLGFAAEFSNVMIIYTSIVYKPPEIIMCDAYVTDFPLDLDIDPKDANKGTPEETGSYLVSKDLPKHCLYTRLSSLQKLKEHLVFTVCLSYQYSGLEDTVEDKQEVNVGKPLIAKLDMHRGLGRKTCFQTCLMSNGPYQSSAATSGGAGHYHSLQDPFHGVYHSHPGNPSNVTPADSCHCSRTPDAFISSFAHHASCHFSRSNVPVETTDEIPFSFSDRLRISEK

| SMILES | IC50 [nM] |
| --- | --- |
| C[C@@]1(C(F)(F)F)CN(C(=O)Nc2cc(C(F)(F)F)n[nH]2)c2cnc3cc(Cl)nn3c21 [compound 131, (R)-2-chloro-8-methyl-8-(trifluoromethyl)-N-(3-(trifluoromethyl)-1H-pyrazol-5-yl)-7,8-dihydro-6H-pyrazolo[1,5-a]pyrrolo[2,3-e]pyrimidine-6-carboxamide] | 10 to 100 |
| C[C@@]1(C(F)(F)F)CN(C(=O)Nc2cnc(C(=O)N3CCC3)c(C(F)F)c2)c2cnc3cc(Cl)nn3c21 [compound 203, (R)-N-(6-(azetidine-1-carbonyl)-5-(difluoromethyl)pyridin-3-yl)-2-chloro-8-methyl-8-(trifluoromethyl)-7,8-dihydro-6H-pyrazolo[1,5-a]pyrrolo[2,3-e]pyrimidine-6-carboxamide] | 100 to 1000 |
| C[C@@]1(C(F)(F)F)CN(C(=O)Nc2cc(C(F)F)nnc2C(N)=O)c2cnc3cc(Cl)nn3c21 [compound 148, (R)-N-(3-carbamoyl-6-(difluoromethyl)pyridazin-4-yl)-2-chloro-8-methyl-8-(trifluoromethyl)-7,8-dihydro-6H-pyrazolo[1,5-a]pyrrolo[2,3-e]pyrimidine-6-carboxamide] | 100 to 1000 |
| CN1CC(Oc2cc(NC(=O)N3C[C@@](C)(C(F)(F)F)c4c3cnc3cc(Cl)nn43)cc(C(F)(F)F)n2)C1 [compound 121, (R)-2-chloro-8-methyl-N-(2-((1-methylazetidin-3-yl)oxy)-6-(trifluoromethyl)pyridin-4-yl)-8-(trifluoromethyl)-7,8-dihydro-6H-pyrazolo[1,5-a]pyrrolo[2,3-e]pyrimidine-6-carboxamide] | 10 to 100 |
| CNc1nnc(C(F)(F)F)cc1NC(=O)N1C[C@@](C)(C(F)(F)F)c2c1cnc1cc(Cl)nn21 [compound 112, (R)-2-chloro-8-methyl-N-(3-(methylamino)-6-(trifluoromethyl)pyridazin-4-yl)-8-(trifluoromethyl)-7,8-dihydro-6H-pyrazolo[1,5-a]pyrrolo[2,3-e]pyrimidine-6-carboxamide] | 100 to 1000 |
| CN1CC(Oc2cc(NC(=O)N3C[C@@](C)(C(F)(F)F)c4c3cnc3cc(Cl)nn43)cc(C(F)F)n2)C1 [compound 130, (R)-2-chloro-N-(2-(difluoromethyl)-6-((1-methylazetidin-3-yl)oxy)pyridin-4-yl)-8-methyl-8-(trifluoromethyl)-7,8-dihydro-6H-pyrazolo[1,5-a]pyrrolo[2,3-e]pyrimidine-6-carboxamide] | 100 to 1000 |
| CC(C)(O)c1cnn(-c2ncc(NC(=O)N3C[C@@](C)(C(F)(F)F)c4c3cnc3cc(Cl)nn43)cc2Cl)n1 [compound 180, (R)-2-chloro-N-(5-chloro-6-(4-(2-hydroxypropan-2-yl)-2H-1,2,3-triazol-2-yl)pyridine-3-yl)-8-methyl-8-(trifluoromethyl)-7,8-dihydro-6H-pyrazolo[1,5-a]pyrrolo[2,3-e]pyrimidine-6-carboxamide] | 100 to 1000 |
| CC(O)c1cc2ncc3c(n2n1)C(C)(C(F)(F)F)CN3C(=O)Nc1cnc(-n2nccn2)c(Cl)c1 (centres unmarked) [compound 80, N-(5-chloro-6-(2H-1,2,3-triazol-2-yl)pyridin-3-yl)-2-(1-hydroxyethyl)-8-methyl-8-(trifluoromethyl)-7,8-dihydro-6H-pyrazolo[1,5-a]pyrrolo[2,3-e]pyrimidine-6-carboxamide] | 100 to 1000 |
| CC(C)(O)Cn1ccc(-c2ncc(NC(=O)N3C[C@@](C)(C(F)(F)F)c4c3cnc3cc(F)nn43)cc2C(F)F)n1 [compound 162, (R)-N-(5-(difluoromethyl)-6-(1-(2-hydroxy-2-methylpropyl)-1H-pyrazol-3-yl)pyridin-3-yl)-2-fluoro-8-methyl-8-(trifluoromethyl)-7,8-dihydro-6H-pyrazolo[1,5-a]pyrrolo[2,3-e]pyrimidine-6-carboxamide] | 10 to 100 |
| Cc1cc(NC(=O)N2C[C@@](C)(C(F)(F)F)c3c2cnc2cc(Cl)nn32)cc(OC[C@H](C)N)n1 [compound 58, (R)-N-(2-((S)-2-aminopropoxy)-6-methylpyridin-4-yl)-2-chloro-8-methyl-8-(trifluoromethyl)-7,8-dihydro-6H-pyrazolo[1,5-a]pyrrolo[2,3-e]pyrimidine-6-carboxamide] | 10 to 100 |
| CN1CC[C@H](Oc2cc(OC(F)F)cc(NC(=O)N3C[C@@](C)(C(F)(F)F)c4c3cnc3cc(Cl)nn43)n2)C1 [compound 198, (R)-2-chloro-N-(4-(difluoromethoxy)-6-(((S)-1-methylpyrrolidin-3-yl)oxy)pyridin-2-yl)-8-methyl-8-(trifluoromethyl)-7,8-dihydro-6H-pyrazolo[1,5-a]pyrrolo[2,3-e]pyrimidine-6-carboxamide] | 10 to 100 |
| C[C@@]1(C(F)(F)F)CN(C(=O)Nc2cc(C(F)F)nnc2C#N)c2cnc3cc(Cl)nn3c21 [compound 143, (R)-2-chloro-N-(3-cyano-6-(difluoromethyl)pyridazin-4-yl)-8-methyl-8-(trifluoromethyl)-7,8-dihydro-6H-pyrazolo[1,5-a]pyrrolo[2,3-e]pyrimidine-6-carboxamide] | 100 to 1000 |
| Cc1cn2ccc3c(c2n1)C(C)(C(F)(F)F)CN3C(=O)Nc1cnc(-n2nccn2)c(Cl)c1 (centres unmarked) [compound 193, N-(5-chloro-6(2H-1,2,3-triazol-2-yl)pyridin-3-yl)-2,9-dimethyl-9-(trifluoromethyl)-8,9-dihydro-7H-imidazo[1,2-a]pyrrolo[3,2-c]pyridine-7-carboxamide] | 10 to 100 |
| Cn1cc(NC(=O)N2C[C@@](C)(C(F)(F)F)c3c2cnc2cc(Cl)nn32)cn1 [compound 164, (R)-2-chloro-8-methyl-N-(1-methyl-1H-pyrazol-4-yl)-8-(trifluoromethyl)-7,8-dihydro-6H-pyrazolo[1,5-a]pyrrolo[2,3-e]pyrimidine-6-carboxamide] | 100 to 1000 |
| C[C@@]1(C(F)(F)F)CN(C(=O)Nc2cc(C(F)F)n[nH]2)c2cnc3cc(Cl)nn3c21 [compound 107, (R)-2-chloro-N-(3-(difluoromethyl)-1H-pyrazol-5-yl)-8-methyl-8-(trifluoromethyl)-7,8-dihydro-6H-pyrazolo[1,5-a]pyrrolo[2,3-e]pyrimidine-6-carboxamide] | 10 to 100 |
| C[C@]1(C(F)(F)F)CN(C(=O)Nc2cnc(-n3nccn3)c(C#N)c2)c2cnc3cc(F)nn3c21 [compound 90, (S)-N-(5-cyano-6-(2H-1,2,3-triazol-2-yl)pyridin-3-yl)-2-fluoro-8-methyl-8-(trifluoromethyl)-7,8-dihydro-6H-pyrazolo[1,5-a]pyrrolo[2,3-e]pyrimidine-6-carboxamide] | 10 to 100 |
| CN(C)c1cc(NC(=O)N2C[C@@](C)(C(F)(F)F)c3c2cnc2cc(Cl)nn32)cnn1 [compound 101, (R)-2-chloro-N-(6-(dimethylamino)pyridazin-4-yl)-8-methyl-8-(trifluoromethyl)-7,8-dihydro-6H-pyrazolo[1,5-a]pyrrolo[2,3-e]pyrimidine-6-carboxamide] | 100 to 1000 |
| C[C@@H](N)COc1cc(NC(=O)N2C[C@@](C)(C(F)(F)F)c3c2cnc2cc(Cl)nn32)cn(C(F)F)c1=O [compound 109, (R)-N-(5-((R)-2-aminopropoxy)-1-(difluoromethyl)-6-oxo-1,6-dihydropyridin-3-yl)-2-chloro-8-methyl-8-(trifluoromethyl)-7,8-dihydro-6H-pyrazolo[1,5-a]pyrrolo[2,3-e]pyrimidine-6-carboxamide] | 100 to 1000 |
| C[C@@]1(C(F)(F)F)CN(C(=O)Nc2cc(C(F)F)ncn2)c2cnc3cc(Cl)nn3c21 [compound 106, (R)-2-chloro-N-(6-(difluoromethyl)pyrimidin-4-yl)-8-methyl-8-(trifluoromethyl)-7,8-dihydro-6H-pyrazolo[1,5-a]pyrrolo[2,3-e]pyrimidine-6-carboxamide] | 10 to 100 |
| C[C@@]1(C(F)(F)F)CN(C(=O)Nc2cc(C(F)F)on2)c2cnc3cc(Cl)nn3c21 [compound 102, (R)-2-chloro-N-(5-(difluoromethyl)isoxazol-3-yl)-8-methyl-8-(trifluoromethyl)-7,8-dihydro-6H-pyrazolo[1,5-a]pyrrolo[2,3-e]pyrimidine-6-carboxamide] | 100 to 1000 |
| C[C@@]1(C(F)(F)F)CN(C(=O)Nc2ccnc(C(F)(F)F)c2F)c2cnc3cc(Cl)nn3c21 [compound 100, (R)-2-chloro-N-(3-fluoro-2-(trifluoromethyl)pyridin-4-yl)-8-methyl-8-(trifluoromethyl)-7,8-dihydro-6H-pyrazolo[1,5-a]pyrrolo[2,3-e]pyrimidine-6-carboxamide] | 100 to 1000 |
| CN1CC(Oc2cc(NC(=O)N3C[C@@](C)(C(F)(F)F)c4c3cnc3cc(Cl)nn43)cn(C(F)F)c2=O)C1 [compound 110, (R)-2-chloro-N-(1-(difluoromethyl)-5-((1-methylazetidin-3-yl)oxy)-6-oxo-1,6-dihydropyridin-3-yl)-8-methyl-8-(trifluoromethyl)-7,8-dihydro-6H-pyrazolo[1,5-a]pyrrolo[2,3-e]pyrimidine-6-carboxamide] | 100 to 1000 |
| CC(C)(O)c1cc(NC(=O)N2C[C@@](C)(C(F)(F)F)c3c2cnc2cc(Cl)nn32)cc(C(F)(F)F)n1 [compound 78, (R)-2-chloro-N-(2-(2-hydroxypropan-2-yl)-6-(trifluoromethyl)pyridin-4-yl)-8-methyl-8-(trifluoromethyl)-7,8-dihydro-6H-pyrazolo[1,5-a]pyrrolo[2,3-e]pyrimidine-6-carboxamide] | 100 to 1000 |

From patent US20240018157A1, “CYCLIC COMPOUNDS AND METHODS OF USING SAME” (Schrödinger, Inc., priority 2019, published 2024)
